Test [1] deals with distal middle cerebral artery occlusion (dMCAO) mouse model. Nature of the test: Collateral artery size and function after dMCAO stroke induction. Format: in vivo. The text has this: (§1) FIGS. 6A, 6B, and 6C. […] FIG. 6A depicts the time course of the experiment, with recombinant DLL4 administered one day prior to and for seven days following dMCAO stroke induction. FIG. 6B: Collateral artery diameter, velocity, and flux, and the area between the vertical lines denotes the period of DLL4 administration. Triangles: rDLL4, Circles: Control. Control, n=5, Treated; n=5. *P<0.05, **P<0.01. FIG. 6C depicts ladder test results for mice are subject to behavior test at 15 to 17 days after experimental stroke, the scores being the average of the two measurements.
(§2) Collateral artery size and function was assessed at seven and fourteen days following injury.

Test [2] has the same test system. Nature of the test: Ladder test of neurological function after dMCAO. The format is in vivo.
From the text: as §1, §2

Setting [3] is: wild type C57BL/6J mice, dMCAO, daily iv for eight days from the day before dMCAO, day 7, vs control.

For “rDLL4: recombinant mouse DLL4 (Delta-like ligand 4), a Notch activating ligand, given intravenously”, the “collateral artery size and function (diameter, velocity, flux)” value in test [1] (day 14 after dMCAO, 7 days after administration was halted, vs control) is “Significant improvements in the treated mice persisted”. For the same substance, in test [1] (following dMCAO, FIG. 6 legend), the cerebral blood flow entry was “preserves cerebral blood flow” and the growth of collaterals entry is listed as “improves growth of collaterals”. Besides, in test [1] (setting [3]), the collateral artery diameter entry was “significantly improved”, the collateral artery flux entry is given as “significantly improved” and the collateral artery velocity result was “significantly improved”. Further, in test [2] (day 15 and 17 after dMCAO, vs control), the “neurological function, ladder test” value is “higher in the treated mice”. In addition, the neurological function result in test [2] (following dMCAO, FIG. 6 legend) is “improving neurological function”.

The values above are taken from patent publication US20210220434A1, “Treatment of Vascular Occlusion by Activation of Notch Signaling” (The Regents of the University of California, priority 2018, published 2021).
